Experimental data published in patent US20260159512A1, “BCAT2 INHIBITORS” (AGIOS PHARMACEUTICALS, INC., priority 2021, published 2026).
Several values for one entry are separate records, joined by “and”; a condition that tells them apart may be missing. Identical values can stand only once.

Columns and labels:
Conditions in all cases: average where tested multiple times
BCAT2 [1] = target: T1, BCAT2 (Homo sapiens, UniProt O15382); test: BCAT2 in vitro cell inhibition using engineered A549 cells (KMV cell assay, 13C6-KMV by LC-MS/MS); assay type: cell-based; parameters: The result was an engineered A549 cell line that expressed endogenous BCAT2; endogenous in cells; host or cells: A549 cells with MUT and BCAT1 knocked out by CRISPR/CAS9; key to BCAT2 Cell Inhibition: A: less than or equal to 0.100 μM; B: greater than 0.100 and less than or equal to 0.500 μM; C: greater than 0.500 and less than or equal to 1.000 μM; d: greater than 1.000 μM; E: no fit
T1 sequence (O15382 28-392): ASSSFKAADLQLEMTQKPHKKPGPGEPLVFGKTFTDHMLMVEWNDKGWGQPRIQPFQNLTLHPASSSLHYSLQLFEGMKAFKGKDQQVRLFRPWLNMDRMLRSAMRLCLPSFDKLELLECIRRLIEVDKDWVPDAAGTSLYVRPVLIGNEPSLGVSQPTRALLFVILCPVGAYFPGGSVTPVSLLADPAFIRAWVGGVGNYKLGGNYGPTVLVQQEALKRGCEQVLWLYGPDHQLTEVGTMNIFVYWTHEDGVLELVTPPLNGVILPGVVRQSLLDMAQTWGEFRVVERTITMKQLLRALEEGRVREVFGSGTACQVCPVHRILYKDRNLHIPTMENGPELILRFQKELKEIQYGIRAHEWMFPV

BCAT2 [2] = target: T1, BCAT2; test: BCAT2 in vitro enzyme inhibition assay (resazurin/diaphorase-coupled fluorescence); assay type: biochemical
In short: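 Coupled fluorescence readout: glutamate formed from L-leucine/α-ketoglutarate transamination drives GDH/NAD/diaphorase reduction of resazurin (Ex 540/Em 590). Human BCAT2 was first exposed 1 h at room temperature to compound, top final 100 μM in 3-fold, 10-point series; substrate reaction ran 1 h before SDS quench, in technical duplicate with DMSO max and enzyme-free min controls.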

hBCAT1 = target: T2, hBCAT1 (Homo sapiens, UniProt P54687); test: BCAT1 in vitro enzyme inhibition assay (resazurin/diaphorase-coupled fluorescence); assay type: biochemical
T2 sequence (P54687 1-386): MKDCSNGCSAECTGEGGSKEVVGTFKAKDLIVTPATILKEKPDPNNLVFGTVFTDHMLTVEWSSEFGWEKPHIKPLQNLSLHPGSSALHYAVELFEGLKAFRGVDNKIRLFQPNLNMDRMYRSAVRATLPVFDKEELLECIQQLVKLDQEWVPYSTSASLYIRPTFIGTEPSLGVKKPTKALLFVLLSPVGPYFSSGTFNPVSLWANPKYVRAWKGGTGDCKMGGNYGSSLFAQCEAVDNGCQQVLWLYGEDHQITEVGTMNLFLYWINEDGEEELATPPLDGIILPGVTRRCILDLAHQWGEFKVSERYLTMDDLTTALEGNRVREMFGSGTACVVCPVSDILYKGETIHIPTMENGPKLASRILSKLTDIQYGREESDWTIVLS
In short: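 Ten-point, 3-fold compound series (top final 100 μM, delivered 1:50 from 50× DMSO stocks) tested against hBCAT1. Inhibition detected via diaphorase-coupled resazurin fluorescence, duplicate wells, with values from repeated runs averaged.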

IC50 (BCAT2 [1])	IC50 (BCAT2 [2])	IC50 (hBCAT1)	BCAT2 Cell Inhibition (BCAT2 [1])	Compound
500 to 1000 nM	≤ 100 nM	< 500 nM	–	CNc1cc2c(cn1)nc(-c1ccccc1F)n2[C@@H]1C[C@@H](O)C[C@H](NC(=O)c2ncc(Cl)s2)C1 [Example 274, 5-chloro-N-((1R,3S,5S)-3-(2-(2-fluorophenyl)-6-(methylamino)-1H-imidazo[4,5-c]pyridin-1-yl)-5-hydroxycyclohexyl)thiazole-2-carboxamide]
≤ 100 nM	≤ 100 nM	< 500 nM	–	O=C(N[C@H]1C[C@H](O)C[C@@H](n2c(-c3ccccc3F)nc3cnc(F)cc32)C1)c1ncc(Cl)s1 [Example 276, 5-chloro-N-((1R,3S,5S)-3-(6-fluoro-2-(2-fluorophenyl)-1H-imidazo[4,5-c]pyridin-1-yl)-5-hydroxycyclohexyl)thiazole-2-carboxamide]
100 to 500 nM	≤ 100 nM	< 500 nM	–	COc1cc2c(cn1)nc(-c1ccccc1F)n2[C@@H]1C[C@@H](O)C[C@H](NC(=O)c2ncc(Cl)s2)C1 [Example 278, 5-chloro-N-((1R,3S,5S)-3-(2-(2-fluorophenyl)-6-methoxy-1H-imidazo[4,5-c]pyridin-1-yl)-5-hydroxycyclohexyl)thiazole-2-carboxamide]
≤ 100 nM	≤ 100 nM	< 500 nM	–	CNC(=O)c1cc2nc(-c3ccccc3F)n(C3CCCC(NC(=O)c4ncc(Cl)s4)C3O)c2cn1 (stereo not drawn) [Example 281, 5-chloro-N-(3-(2-(2-fluorophenyl)-6-(methylcarbamoyl)-3H-imidazo[4,5-c]pyridin-3-yl)-2-hydroxycyclohexyl)thiazole-2-carboxamide]
> 1000 nM	≤ 100 nM	> 5000 nM and 1000 to 5000 nM	–	CC(=O)N1CC(NC(=O)c2ccc(Br)s2)CC(n2c(-c3ncccc3F)nc3cc(-c4nnco4)ccc32)C1 (stereo not drawn) [Example 283, N-(1-acetyl-5-(2-(3-fluoropyridin-2-yl)-5-(1,3,4-oxadiazol-2-yl)-1H-benzo[d]imidazol-1-yl)piperidin-3-yl)-5-bromothiophene-2-carboxamide]
100 to 500 nM	≤ 100 nM	1000 to 5000 nM	–	CC(=O)N1CC(NC(=O)c2ccc(Br)s2)CC(n2c(-c3ccccn3)nc3ccc(-c4ncon4)cc32)C1 (stereo not drawn) [Example 286, N-(5-(6-(1,2,4-oxadiazol-3-yl)-2-(pyridin-2-yl)-1H-benzo[d]imidazol-1-yl)-1-acetylpiperidin-3-yl)-5-bromothiophene-2-carboxamide]
–	100 to 500 nM	> 5000 nM	E	CNC(=O)c1ccc2c(c1)nc(-c1ccccn1)n2C1CC(NC(=O)c2ccc(Br)s2)CN(C(C)=O)C1 (stereo not drawn) [Example 287, 1-(1-acetyl-5-(5-bromothiophene-2-carboxamido)piperidin-3-yl)-N-methyl-2-(pyridin-2-yl)-1H-benzo[d]imidazole-5-carboxamide]
–	500 to 1000 nM	> 5000 nM	E	CNC(=O)c1ccc2c(c1)nc(-c1ccccn1)n2C1CC(NC(=O)c2ccc(Br)s2)CN(C)C1 (stereo not drawn) [Example 288, 1-(5-(5-bromothiophene-2-carboxamido)-1-methylpiperidin-3-yl)-N-methyl-2-(pyridin-2-yl)-1H-benzo[d]imidazole-5-carboxamide]
100 to 500 nM	≤ 100 nM	1000 to 5000 nM	–	CNC(=O)c1cc2nc(-c3ccccc3F)n(C3CC(NC(=O)c4ccc(Br)s4)CN(C)C3)c2cc1OC (stereo not drawn) [Example 291, 1-(5-(5-bromothiophene-2-carboxamido)-1-methylpiperidin-3-yl)-2-(2-fluorophenyl)-6-methoxy-N-methyl-1H-benzo[d]imidazole-5-carboxamide]
100 to 500 nM	≤ 100 nM	500 to 1000 nM	–	CC(C)(F)Cc1nc2cnc(-c3ccccn3)cc2n1[C@@H]1CCC[C@H](NC(=O)c2ncc(Cl)s2)C1 [Example 302, 5-chloro-N-((1S,3R)-3-(2-(2-fluoro-2-methylpropyl)-6-(pyridin-2-yl)-1H-imidazo[4,5-c]pyridin-1-yl)cyclohexyl)thiazole-2-carboxamide]
100 to 500 nM	≤ 100 nM	< 500 nM	–	CC(C)Cc1nc2cnc(-c3ccccn3)cc2n1[C@@H]1CCC[C@H](NC(=O)c2ncc(Cl)s2)C1 [Example 303, 5-chloro-N-((1S,3R)-3-(2-isobutyl-6-(pyridin-2-yl)-1H-imidazo[4,5-c]pyridin-1-yl)cyclohexyl)thiazole-2-carboxamide]
100 to 500 nM	≤ 100 nM	< 500 nM	–	CC(C)[C@@H](O)c1nc2cnc(-c3ccccn3)cc2n1[C@@H]1CCC[C@H](NC(=O)c2ncc(Cl)s2)C1 [Example 305, 5-chloro-N-((1S,3R)-3-(2-((R)-1-hydroxy-2-methylpropyl)-6-(pyridin-2-yl)-1H-imidazo[4,5-c]pyridin-1-yl)cyclohexyl)thiazole-2-carboxamide]
100 to 500 nM	≤ 100 nM	500 to 1000 nM	–	Cc1coc(-c2cc3c(cn2)nc(CC(C)C)n3[C@@H]2CCC[C@H](NC(=O)c3ncc(Cl)s3)C2)n1 [Example 306, 5-chloro-N-((1S,3R)-3-(2-isobutyl-6-(4-methyloxazol-2-yl)-1H-imidazo[4,5-c]pyridin-1-yl)cyclohexyl)thiazole-2-carboxamide]
500 to 1000 nM	≤ 100 nM	1000 to 5000 nM	–	CC(C)Cc1nc2cnc(-c3cccc(CO)n3)cc2n1[C@@H]1CCC[C@H](NC(=O)c2ncc(Cl)s2)C1 [Example 311, 5-chloro-N-((1S,3R)-3-(6-(6-(hydroxymethyl)pyridin-2-yl)-2-isobutyl-1H-imidazo[4,5-c]pyridin-1-yl)cyclohexyl)thiazole-2-carboxamide]
≤ 100 nM	≤ 100 nM	< 500 nM	–	O=C(N[C@H]1CCC[C@@H](n2c(CC3CC3)nc3cnc(-c4nc[nH]n4)cc32)C1)c1ncc(Cl)s1 [Example 312, 5-chloro-N-((1S,3R)-3-(2-(cyclopropylmethyl)-6-(1H-1,2,4-triazol-3-yl)-1H-imidazo[4,5-c]pyridin-1-yl)cyclohexyl)thiazole-2-carboxamide]
≤ 100 nM	≤ 100 nM	< 500 nM	–	O=C(N[C@H]1CCC[C@@H](n2c(COC(F)(F)F)nc3cnc(-c4nc[nH]n4)cc32)C1)c1ncc(Cl)s1 [Example 313, N-((1S,3R)-3-(6-(1H-1,2,4-triazol-3-yl)-2-((trifluoromethoxy)methyl)-1H-imidazo[4,5-c]pyridin-1-yl)cyclohexyl)-5-chlorothiazole-2-carboxamide]
100 to 500 nM	≤ 100 nM	< 500 nM	–	COC(c1nc2cnc(-c3nc[nH]n3)cc2n1[C@@H]1CCC[C@H](NC(=O)c2ncc(Cl)s2)C1)C(C)C (stereo partly drawn) [Example 314, 5-chloro-N-((1S,3R)-3-(2-(1-methoxy-2-methylpropyl)-6-(1H-1,2,4-triazol-3-yl)-1H-imidazo[4,5-c]pyridin-1-yl)cyclohexyl)thiazole-2-carboxamide]
100 to 500 nM	≤ 100 nM	500 to 1000 nM	–	O=C(N[C@H]1CCC[C@@H](n2c(COC(F)(F)F)nc3cnc(-n4nccn4)cc32)C1)c1ncc(Cl)s1 [Example 315, N-((1S,3R)-3-(6-(2H-1,2,3-triazol-2-yl)-2-((trifluoromethoxy)methyl)-1H-imidazo[4,5-c]pyridin-1-yl)cyclohexyl)-5-chlorothiazole-2-carboxamide]
> 1000 nM	≤ 100 nM	1000 to 5000 nM	–	CNc1nccc(-c2cc3c(cn2)nc(CC(C)C)n3[C@@H]2CCC[C@H](NC(=O)c3ncc(Cl)s3)C2)n1 [Example 316, 5-chloro-N-((1S,3R)-3-(2-isobutyl-6-(2-(methylamino)pyrimidin-4-yl)-1H-imidazo[4,5-c]pyridin-1-yl)cyclohexyl)thiazole-2-carboxamide]
